The values that follow come from ChEMBL document CHEMBL4732191, “Synthesis of novel potent cytotoxicy podophyllotoxin-naphthoquinone compounds via microwave-assited multicomponent domino reactions” (Bioorg Med Chem Lett, 2021).

Some results are limits rather than exact numbers.

Data set [1] relates to SK-LU-1. Briefly: Cytotoxicity against human SK-LU-1 cells. Format: functional, cell-based.
Data set [2] relates to HEK293. Nature of the data set: Cytotoxicity against human HEK293 cells. The format is cell-based.
Data set [3] relates to HepG2. Nature of the data set: Cytotoxicity against human HepG2 cells. Format: functional, cell-based.
Data set [4] relates to MCF7. Briefly: Cytotoxicity against human MCF7 cells. The format is functional, cell-based.
Data set [5] has as its system KB. Nature of the data set: Cytotoxicity against human KB cells. The format is functional, cell-based.
Data set [6] is described as follows: Selectivity index, ratio of IC50 for human HEK293 cells to IC50 for human SK-LU-1 cells.
A short description of data set [7]: Selectivity index, ratio of IC50 for human HEK293 cells to IC50 for human HepG2 cells. The format is toxicity. The settings on record: HEK293 cells and HepG2 cells, read-out: Ratio IC50.

Turning to `O=C1OCC2=C1C(c1ccc(C(F)(F)F)cc1)C1=C(N2)C(=O)c2ccccc2C1=O` (stereo not drawn), the IC50 is 510 nM in data set [1]; 7590 nM in data set [2]; 1240 nM in data set [3]; > 2500 nM in data set [4]; 800 nM in data set [5].

Turning to `COc1cccc(C2C3=C(COC3=O)NC3=C2C(=O)c2ccccc2C3=O)c1` (stereo not drawn), the 50% inhibitory concentration (IC50) is < 40 nM in data set [1]; 9350 nM in data set [2]; 460 nM in data set [3]; > 2500 nM in data set [4]; 1230 nM in data set [5]. Also, the “Ratio IC50” value in data set [6] is “>=200”. The selectivity ratio in data set [7] was ≥ 200.

Turning to `COc1ccc(C2C3=C(COC3=O)NC3=C2C(=O)c2ccccc2C3=O)cc1` (stereo not drawn), the IC50 in data set [1] is 880 nM; in data set [2] it was 8170 nM; in data set [3], 2060 nM; in data set [4], > 2500 nM; in data set [5], 880 nM.

Take `O=C1OCC2=C1C(c1ccc(F)cc1)C1=C(N2)C(=O)c2ccccc2C1=O` (stereo not drawn): the IC50 in data set [1] was 280 nM; in data set [2], 5350 nM; in data set [3], 440 nM; in data set [4], > 2500 nM; in data set [5], 2160 nM.

In the case of `O=C1OCC2=C1C(c1ccc3c(c1)C(=O)OC3)C1=C(N2)C(=O)c2ccccc2C1=O` (stereo not drawn), the IC50 was 80 nM in data set [1]; 4780 nM in data set [2]; 470 nM in data set [3]; > 2500 nM in data set [4]; 1860 nM in data set [5].

Consider `O=C1OCC2=C1C(c1cccc3ccccc13)C1=C(N2)C(=O)c2ccccc2C1=O` (stereo not drawn), for which the IC50 was > 2500 nM in data set [1]; 14700 nM in data set [2]; > 2500 nM in data set [3]; > 2500 nM in data set [4]; > 2500 nM in data set [5].

Take `O=C1OCC2=C1C(c1ccccc1)C1=C(N2)C(=O)c2ccccc2C1=O` (stereo not drawn): the IC50 in data set [1] is < 44 nM; in data set [2] it was 1340 nM; in data set [3], < 44 nM; in data set [4] it was 1980 nM; in data set [5] it was 1540 nM. Moreover, the “Ratio IC50” value in data set [6] is listed as “>=200”. Besides, the selectivity ratio in data set [7] is ≥ 200.

`COc1cc(C2C3=C(COC3=O)NC3=C2C(=O)c2ccccc2C3=O)ccc1O` (stereo not drawn): the IC50 in data set [1] is 410 nM; in data set [2], 1410 nM; in data set [3], 410 nM; in data set [4], > 2500 nM; in data set [5], 1900 nM.

For the compound `O=C1OCC2=C1C(c1ccc(Cl)cc1)C1=C(N2)C(=O)c2ccccc2C1=O` (stereo not drawn), the IC50 is 500 nM in data set [1]; 5890 nM in data set [2]; 1350 nM in data set [3]; > 2500 nM in data set [4]; 1460 nM in data set [5].

On to `O=C1OCC2=C1C(c1ccccc1[N+](=O)[O-])C1=C(N2)C(=O)c2ccccc2C1=O` (stereo not drawn), for which the IC50 in data set [1] was 2220 nM; in data set [2], 9950 nM; in data set [3], > 2500 nM; in data set [4], > 2500 nM; in data set [5], 2340 nM.

In the case of `O=C1OCC2=C1C(c1cccc([N+](=O)[O-])c1)C1=C(N2)C(=O)c2ccccc2C1=O` (stereo not drawn), the 50% inhibitory concentration (IC50) is < 39 nM in data set [1]; 1470 nM in data set [2]; < 39 nM in data set [3]; 2190 nM in data set [4]; 1160 nM in data set [5]. Also, in data set [6], the “Ratio IC50” value was “>=200”. Moreover, the selectivity ratio in data set [7] is ≥ 200.

For the compound `O=C1OCC2=C1C(c1cccc(Br)c1)C1=C(N2)C(=O)c2ccccc2C1=O` (stereo not drawn), the IC50 in data set [1] was < 36 nM; in data set [2] it was 7200 nM; in data set [3], < 36 nM; in data set [4], > 2500 nM; in data set [5] it was 1710 nM. The “Ratio IC50” value in data set [6] is on record as “>=200”. Also, the selectivity ratio in data set [7] was ≥ 200.

In the case of `O=C1OCC2=C1C(c1ccccc1F)C1=C(N2)C(=O)c2ccccc2C1=O` (stereo not drawn), the IC50 in data set [1] was 280 nM; in data set [2], 10300 nM; in data set [3], 420 nM; in data set [4], > 2500 nM; in data set [5], 1190 nM.

For `O=C1OCC2=C1C(c1ccc(Br)cc1)C1=C(N2)C(=O)c2ccccc2C1=O` (stereo not drawn), the concentration for half-maximal inhibition (IC50) in data set [1] is 450 nM; in data set [2], 8270 nM; in data set [3], 1500 nM; in data set [4], > 2500 nM; in data set [5], 2140 nM.

As for `O=C1OCC2=C1C(c1ccc3ccccc3c1)C1=C(N2)C(=O)c2ccccc2C1=O` (stereo not drawn), the IC50 in data set [1] was 1020 nM; in data set [2] it was 7610 nM; in data set [3] it was 1680 nM; in data set [4], > 2500 nM; in data set [5], > 2500 nM.

On to `Cc1ccc(C2C3=C(COC3=O)NC3=C2C(=O)c2ccccc2C3=O)cc1` (stereo not drawn), for which the IC50 in data set [1] was 1650 nM; in data set [2] it was 21600 nM; in data set [3], 2240 nM; in data set [4], > 2500 nM; in data set [5], > 2500 nM.

Take `Cc1c2ccncc2c(C)c2c1[nH]c1ccccc12` [ELLIPTECINE]: the IC50 in data set [1] turned out to be 1540 nM; in data set [2], 1690 nM; in data set [3], 1660 nM; in data set [4], 1580 nM; in data set [5], 1750 nM.

Broadly, the IC50 is the concentration at which inhibition is half-maximal. Read a low IC50 as greater potency in that assay.
